Data on ten compounds can be found in patent US9518038B2, “Condensation product of theanine derivative and carboxylic acid coumarin derivative, its intermediate, preparation method and use thereof” (SHANDONG YINGDONG YINGHAO BIOTECHNOLOGY, INC., priority 2012, dated 2016).

SMILES strings stand for the structures. A value given as a limit tells only on which side of the number the result lay.

Data set [1] has as its system human prostate cancer cells PC-3. The data set is described as follows: MTT growth inhibition, PC-3 cells. In kind it is cell-based. The note with it: 72 h after treatment, read-out: Drug concentration (IC50) at which 50% cancer cells survived.
In data set [2] the test system is human lymphoma cells U937. The data set is described as follows: MTT growth inhibition, U937 cells. It counts as cell-based. To be noted: Homo sapiens, U-937, 72 h after treatment, read-out: Drug concentration (IC50) at which 50% cancer cells survived. A digest of the protocol: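 At 48 h and 72 h after dosing, MTT was added for 4 h in serum-free DMEM, formazan was dissolved in DMSO and absorbance read at 570 nm. Relative survival was calculated against untreated cell control, and IC50 derived by regression from three repeat experiments.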

Data set [3] deals with human cervical cancer Hela cell lines. The data set is described as follows: MTT growth inhibition, Hela cells. The note with it: Homo sapiens, 72 h after treatment, read-out: Drug concentration (IC50) at which 50% cancer cells survived. It counts as cell-based.
In data set [4] the test system is human chronic leukemia cells K562. Description: MTT growth inhibition, K562 cells. The note with it: 72 h after treatment, read-out: Drug concentration (IC50) at which 50% cancer cells survived. It counts as cell-based.
Data set [5] is described as follows: Fluorescent imaging in vivo and in vitro. In kind it is physicochemical. To be noted: 60 mg/kg body weight/0.2 ml. On the procedure: Fluorescent images and wavelength ranges of the compounds as obtained in embodiments 1-7 were determined according to the literature method (Chen Y, et al., 2-(3-{1-Carboxy-5-[(6-[18F]fluoro-pyridine-3-carbonyl)-amino]-pentyl}-ureido)-pentanedioic acid, [18F]DCFPyL, a PSMA-based PET imaging agent for prostate cancer. Clin Cancer Res, 2011, 17(24):7645-53), and the results were shown in Table 3 and FIG. 1.
2. Experimental procedure: For in-vitro fluorescent imaging and detection: the compounds Ia-Ih as obtained in embodiments 1-7 were prepared in 1.5 ml plastic centrifugal tubes into a solution with the concentration of 60 mg/0.2 ml, fluorescent signals and images were respectively detected and recorded with a multifunctional microplate reader and an animal in-vivo imaging instrument under the following excitation and emission wavelength conditions, and the obtained results were shown in Table 3 and FIG. 1 (small test tube photos); and for the detection of fluorescent images in-vivo: after 16 h of fasting treatment of the experimental animals (while drinking water was normally supplied), solutions of the compounds Ia-Ih as obtained in embodiments 1-7 were prepared according to a concentration of 60 mg/kg body weight/0.2 ml, and intraperitoneally administered to the animal, the fluorescent images were detected and recorded with the animal in-vivo imaging instrument under the following excitation and emission wavelength conditions, the obtained results were shown in FIG. 1 (animal in-vivo imaged photos); wherein, the experimental excitation wavelength range was 360 nm-590 nm; and the detection wavelength range was 410 nm-700 nm.

In another data set the test system is H-Ras. Description: Western Blotting, H-Ras level. It counts as cell-based. To be noted: human liver cancer cells, Lewis lung cancer cells and other cancer cell lines and tumor tissues, read-out: Effective concentration (IC50) for inhibition of H-Ras. From the text: Antibodies: primary antibodies of VEGFR, EGFR, c-Met, K-Ras, H-Ras, Akt, NF-κB, Cyclin D1, ER-alpha, Dvl-1, Dvl-2, Dvl-3, MMP-9, MMP2, β-catenin, Bcl-2, Bax, p53, p21, E-cadherin and Caspase3 protein, purchased from American Cell Signaling Technology Company and Santa Cruz Technology Company; and H3 acetylation, H4 acetylation and HDAC (HDAC3, HDAC4 and the like) Antibody Sample Kits, purchased from Cell Signaling Technology Company of the U.S.
(3) polyacrylamide gel electrophoresis (SDS-PAGE): an equal amount of protein lysate sample was used to separate protein, film transfer, and blocking, treated with appropriate primary antibodies and secondary antibodies in sequence, and the film was washed, then the color was developed with ECL kit, and a blot protein band was detected by exposure of an X-ray film; and a Gel-Pro Analyzer was used for quantitative analysis of gray degree, optical density value of the control group and the drug treatment group in various concentration were respectively compared with that of internal reference, the obtained ratios were respectively compared with the control group, and the protein expression level was semi-quantified.

A further data set has as its system HDAC4. The data set is described as follows: HDAC4 enzyme activity in nuclear extracts of human tumor xenografts of treated mice. To be noted: second value of the pair HDAC3 and HDAC4, SAHA 25 mg/kg. On the technique in general: Xenograft models place foreign cells or tissue in a host animal.

Method for HDAC4: For the detection of the effect of the drugs on enzyme activity of EZH2 and HDAC of in-vivo tumors, the tumors were separately excised after 6 h of medication, total proteins and nucleoproteins were extracted separately to detect and analyze the activity of the enzyme.
(2) 50 μl of diluted sample solution was added into each reaction well, the plate was sealed with a plate-sealing film and reacted at room temperature for 30 min;
(3) the plate-sealing film was carefully peeled off, the liquid was removed, dried, 150 μl of washing liquid was added into each well, stood for 30 s, then the liquid was removed, repeated twice, and dried;
(4) 2 μl of HDAC enzyme or tumor tissue nuclear extracts was respectively uniformly mixed with 28 μl of diluted sample solution, added into the wells, the plate was sealed with the plate-sealing film and reacted at 37° C. for 60 min;
(5) the plate was washed for three times, wherein the operation was the same as that in (3); and a diluted antibody capture working solution was added into each reaction well according to 50 μl/well and reacted on a shaking bed at room temperature for 60 min;
(6) the plate was washed for four times, wherein the operation was the same as that in (3);
(7) a diluted antibody detection working solution was added into each reaction well according to 50 μl/well and reacted at room temperature for 30 min;
(8) the plate was washed for five times, wherein the operation was the same as that in (3);
a color developing agent was added according to 100 μl/well, and performed dark development for 2-10 min;
(9) 50 μl of stop solution was added into each well for stopping the reaction when the color in the well with a standard product turned blue with medium intensity, the color immediately turned yellow from blue after the addition;
(10) the light absorbance (OD value) of each well was measured in sequence at the wavelength of 450 nm; wherein the measurement should be performed within 15 min after addition of the stop solution; and

With `CCNC(=O)CCC(NC(=O)c1cc2cc(F)ccc2oc1=O)C(=O)OCC` (stereo in doubt) [Compound Ie, (R)-2-(6-F-2-oxo-2H-benzopyran-3-carboxamido)-5-ethylamino-5-oxo-pentanoic acid ethyl ester], the IC50 in data set [1] was 127 µM; in data set [2], 126 µM; in data set [3] it was 71 µM; in data set [4] it was 130 µM; in the data set on H-Ras, < 60 µM. In addition, the “Emission (fluorescent wavelength range detectable in vivo and in vitro)” value (“Emission” for short) in data set [5] is 430-650 nm. In addition, the “Excitation (fluorescent wavelength range detectable in vivo and in vitro)” value (shortened to “Excitation”) in data set [5] is 360-610 nm. In addition, the “decrease of HDAC4 enzyme activity/inhibition rate” value in the data set with HDAC4 (A549 tumor grown in vivo) is 72%*(A549)-; with HDAC4 (MCF7 tumor grown in vivo), 67%*(MCF7); in the data set with HDAC4 (MDA-MB231 tumor grown in vivo), 62%*(MDA-MB231); with HDAC4 (SMMC7721 tumor grown in vivo), 65%*(SMMC7721);.

Turning to `CCNC(=O)CCC(NC(=O)c1cc2cc([N+](=O)[O-])ccc2oc1=O)C(=O)OCC` (stereo in doubt) [Compound If, (R)-2-(6-nitro-2-oxo-2H-benzopyran-3-carboxamido)-5-ethylamino-5-oxo-pentanoic acid ethyl ester], the IC50 was 171 µM in data set [1]; 121 µM in data set [2]; 71 µM in data set [3]; 91 µM in data set [4]; < 55 µM in the data set on H-Ras. Besides, in data set [5], the “Emission” value is 430-650 nm. Also, the “Excitation” value in data set [5] is 360-610 nm. For the same compound, the “decrease of HDAC4 enzyme activity/inhibition rate” value was 75%*(A549)- with HDAC4 (A549 tumor grown in vivo), 69%*(MCF7) with HDAC4 (MCF7 tumor grown in vivo), 67%*(MDA-MB231) with HDAC4 (MDA-MB231 tumor grown in vivo) and 68%*(SMMC7721); with HDAC4 (SMMC7721 tumor grown in vivo).

Regarding `CCNC(=O)CC[C@H](N)C(=O)OC` [Compound IIa, theanine methyl ester], the IC50 was determined as 350 µM in data set [1], 350 µM in data set [2], 330 µM in data set [3] and 350 µM in data set [4].

In the case of `CCNC(=O)CC[C@H](N)C(=O)OCC` [Compound IIb, theanine ethyl ester], the IC50 was 400 µM in data set [1], 400 µM in data set [2], 500 µM in data set [3] and 600 µM in data set [4].

On to `CCNC(=O)CCC(NC(=O)c1cc2ccccc2oc1=O)C(=O)OC` (stereo not shown) [Compound Ia, methyl 5-ethylamino-5-oxo-2-(2-oxo-2H-benzopyran-3-carboxamido)pentanoate], for which the IC50 in data set [1] is 146 µM; in data set [2], 56 ± 10 µM; in data set [3], 64 ± 20 µM; in data set [4], 248 µM; in the data set with H-Ras, < 85 µM. Also, the “Emission” value in data set [5] is reported as 430-650 nm. In addition, in data set [5], the “Excitation” value is 360-610 nm. In addition, in the data set with HDAC4 (SMMC7721 tumor grown in vivo), the “decrease of HDAC4 enzyme activity/inhibition rate” value was 58%*(SMMC7721).

Regarding `CCNC(=O)CCC(NC(=O)c1cc2ccccc2oc1=O)C(=O)OCC` (stereo not shown) [Compound Ib, ethyl 5-ethylamino-5-oxo-2-(2-oxo-2H-benzopyran-3-carboxamido)pentanoate], the IC50 was 125 µM in data set [1]; 90 µM in data set [2]; 53 µM in data set [3]; 150 µM in data set [4]; < 75 µM in the data set with H-Ras. Further, the “Emission” value in data set [5] is reported as 430-650 nm. Also, in data set [5], the “Excitation” value is 360-610 nm. Besides, the “decrease of HDAC4 enzyme activity/inhibition rate” value in the data set with HDAC4 (A549 tumor grown in vivo) is recorded as 62%*(A549)-; with HDAC4 (SMMC7721 tumor grown in vivo), 61%*(SMMC-7721).

Take `CCNC(=O)CC[C@@H](NC(=O)c1cc2cc(Cl)ccc2oc1=O)C(=O)OCC` [Compound Ic, (R)-2-(6-CI-2-oxo-2H-benzopyran-3-carboxamido)-5-ethylamino-5-oxo-pentanoic acid ethyl ester]: the IC50 in data set [1] is 105 µM; in data set [2], 52 µM; in data set [3], 350 µM; in data set [4] it was 105 µM; with H-Ras it was < 65 µM. The “Emission” value in data set [5] is on record as 430-670 nm. In addition, the “Excitation” value in data set [5] is recorded as 360-610 nm. Also, the “decrease of HDAC4 enzyme activity/inhibition rate” value in the data set on HDAC4 (A549 tumor grown in vivo) is listed as 73%*(A549)-; with HDAC4 (MCF7 tumor grown in vivo), 63%*(MCF7); in the data set with HDAC4 (MDA-MB231 tumor grown in vivo) it was 65%*(MDA-MB231); with HDAC4 (SMMC7721 tumor grown in vivo), 67%*(SMMC-7721);.

As for `CCNC(=O)CC[C@@H](NC(=O)c1cc2cc(Br)ccc2oc1=O)C(=O)OCC` [Compound Id, (R)-2-(6-Br-2-oxo-2H-benzopyran-3-carboxamido)-5-ethylamino-5-oxo-pentanoic acid ethyl ester], the IC50 in data set [1] is 110 µM; in data set [2], 124 µM; in data set [3] it was 75 µM; in data set [4], 125 µM; with H-Ras it was < 60 µM. Further, in data set [5], the “Emission” value is listed as 430-670 nm. Besides, in data set [5], the “Excitation” value was 36-610 nm. Moreover, the “decrease of HDAC4 enzyme activity/inhibition rate” value with HDAC4 (A549 tumor grown in vivo) is given as 73%*(A549)-; in the data set on HDAC4 (MCF7 tumor grown in vivo) it was 63%*(MCF7); with HDAC4 (MDA-MB231 tumor grown in vivo), 65%*(MDA-MB231); in the data set on HDAC4 (SMMC7721 tumor grown in vivo) it was 67%*(SMMC7721);.

In the case of `CCNC(=O)CC[C@@H](NC(=O)c1cc2cc(Cl)cc(Cl)c2oc1=O)C(=O)OCC` [Compound Ig, (R)-2-(6,8-dichloro-2-oxo-2H-benzopyran-3-carboxamido)-5-ethylamino-5-oxo-pentanoic ethyl ester], the IC50 was 45 µM in data set [1]; 38 µM in data set [2]; 66 µM in data set [3]; 57 µM in data set [4]; < 65 µM with H-Ras. Further, in data set [5], the “Emission” value is given as 430-690 nm. In data set [5], the “Excitation” value is on record as 360-610 nm. Also, the “decrease of HDAC4 enzyme activity/inhibition rate” value is on record as 63%*(A549)- in the data set on HDAC4 (A549 tumor grown in vivo), 68%*(MCF7) in the data set with HDAC4 (MCF7 tumor grown in vivo), 66%*(MDA-MB231) in the data set on HDAC4 (MDA-MB231 tumor grown in vivo) and 64%*(SMMC7721); with HDAC4 (SMMC7721 tumor grown in vivo).

With `CCNC(=O)CC[C@@H](NC(=O)c1cc2cc(Br)cc(Br)c2oc1=O)C(=O)OCC` [Compound Ih, (R)-2-(6,8-dibromo-2-oxo-2H-benzopyran-3-carboxamido)-5-ethylamino-5-oxo-pentanoic ethyl ester], the IC50 in data set [1] is 87 µM; in data set [2] it was 57 µM; in data set [3] it was 58 µM; in data set [4] it was 79 µM; in the data set on H-Ras, < 65 µM. Further, the “Emission” value in data set [5] is 430-690 nm. Also, in data set [5], the “Excitation” value was 360-610 nm. Further, the “decrease of HDAC4 enzyme activity/inhibition rate” value in the data set with HDAC4 (A549 tumor grown in vivo) is given as 59%*(A549)-; in the data set with HDAC4 (MCF7 tumor grown in vivo), 66%*(MCF7); in the data set with HDAC4 (MDA-MB231 tumor grown in vivo) it was 64%*(MDA-MB231); with HDAC4 (SMMC7721 tumor grown in vivo), 62%*(SMMC7721);.
